This is an account of results in PubChem BioAssay (NCI).

Common to all, as to test: inhibition of tumour cell growth, NCI panel, 48 h
Test [1] deals with UACC-257 melanoma.
The subject of test [2] is CAKI-1 renal.
Test [3] concerns ACHN renal.
The subject of test [4] is OVCAR-5 ovarian.
The test system of test [5] is HCT-15 colon.
Test [6] relates to SK-MEL-2 melanoma.
Test [7] has as its system SK-MEL-5 melanoma.
The test system of test [8] is OVCAR-3 ovarian.
For test [9], the system named is MDA-MB-231 breast.
The test system of test [10] is LOX IMVI melanoma.
Test [11] concerns SF-539 CNS.

SMILES strings stand for the structures. “And” between values parts separate entries of the source, which are not always exact repeats. Equal values may be shown once.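 Grown in 96-well plates, cells were treated for 48 hours with each compound at five concentrations. Insufficient inhibition: endpoint recorded as highest concentration tested. GI50 = concentration required for 50% inhibition of growth. TGI denotes the concentration required for complete inhibition of growth.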

For the molecule `COc1ccc(/C=N/Nc2nnc3c(n2)c2ccccc2c2nn(-c4ccccc4Cl)nc23)cc1`, the TGI in test [1], in test [2], in test [3], in [4], in test [5] and in test [6] was more than 100 µM in each case. In addition, the TGI in [7], in test [8], in test [9] and in [10] was more than 100 µM each time.
Consider `CC[C@@]12CCC(=S)N(CCSc3ccccc3)[C@@H]1c1c(n(S(=O)(=O)c3ccc(OC)cc3)c3ccccc13)CC2`, for which the TGI in [1], in test [2], in [11], in test [4], in test [5] and in test [6] was more than 100 µM each time. The TGI in test [7], in [8], in [9] and in test [10] was more than 100 µM throughout.
Turning to `CC(=O)O[C@H]1C(=O)[C@@]2(C)[C@H]([C@H](OC(=O)c3ccco3)[C@]3(O)C[C@H](OC(=O)[C@H](O)[C@@H](NC(=O)c4ccccc4)c4ccccc4)C(C)=C1C3(C)C)[C@]1(OC(C)=O)CO[C@@H]1C[C@@H]2O`, the TGI in test [1] is more than 25 µM; in [2] it was more than 25 µM; in [11], 0.371 µM; in test [3] it was more than 25 µM; in test [4], more than 25 µM; in test [5], more than 25 µM. Also, the TGI in test [6] is 0.578 µM; in test [8], 0.225 µM; in test [9] it was more than 25 µM; in test [10] it was more than 25 µM.
On to `CCOC(=O)C1CCC(=O)N1C(=O)c1ccc(Cl)cc1` (stereo unspecified), for which the TGI in test [1], in test [2], in test [11], in test [3], in test [4] and in test [5] was more than 100 µM throughout. For the same molecule, the TGI in test [7], in test [8], in test [9] and in test [10] was more than 100 µM throughout.
Regarding `COc1ccc(C23OCC(Cc4cc(OC)c(OC)cc42)C3CO)cc1OC` (stereo unspecified), the TGI in [2], in test [11], in [3], in test [4], in test [5] and in [6] was more than 100 µM throughout. Moreover, the TGI in test [7], in test [8], in [9] and in test [10] was more than 100 µM each time.
For `Cc1cc2c(cc1Cl)Sc1n[nH]c(=O)n1S2(=O)=O`, the TGI in test [1], in test [2], in test [11], in [3], in test [4] and in test [5] was more than 100 µM throughout. Moreover, the TGI in test [7], in test [8], in test [9] and in test [10] was more than 100 µM each time.
As for `CC(C)=CCCC1(C)C2COC(=O)C21` (stereo unspecified), the TGI in test [1] is more than 100 µM; in [2], > 100 µM and 30.7 µM; in test [3], more than 100 µM; in test [4] it was more than 100 µM; in [5], more than 100 µM; in [6], more than 100 µM. The TGI in test [7] was > 100 µM and 34.6 µM; in [9], more than 100 µM; in [10], > 100 µM and 34.7 µM. In addition, the GI50 was > 100 µM and 16 µM in test [2]; > 100 µM and 37 µM in [5]; > 100 µM and 17.5 µM in test [7]; 38.8 µM and 19 µM in test [10].
On to `CC1CCCN1CCCOC(=O)c1ccc(OC2C=CCCC2)cc1` (stereo unspecified), for which the TGI in test [1] is more than 100 µM; in test [11], 74.9 µM; in test [3] it was more than 100 µM; in [4], more than 100 µM; in test [5], 53 µM; in test [6], more than 100 µM. The TGI is 35.2 µM in test [7], more than 100 µM in [8], 47.8 µM in test [9] and 36.7 µM in [10].
Consider `O=C(NCc1ccccc1Cl)c1c(O)c2ccccc2[nH]c1=O`, for which the TGI is more than 100 µM in [1]; 96.6 µM in test [2]; more than 100 µM in test [11]; more than 100 µM in test [4]; more than 100 µM in [5]; more than 100 µM in test [7]. Also, the results for the TGI in test [8], in test [9] and in test [10] were more than 100 µM, 45.3 µM and more than 100 µM, respectively.
On to `CC[C@]1(Cc2ccc(OC)c(OC)c2)C=[N+]([O-])O[C@H](OC2CCCC2(c2ccccc2)c2ccccc2)[C@@H]1OC(=O)C(C)(C)C` (stereo partly specified), for which the TGI was 18.7 µM in test [1]; more than 100 µM in [2]; 5.25 µM in test [3]; more than 39.9 µM in test [4]; 8.97 µM in test [5]; 7.66 µM in test [6]. In addition, the TGI was 4.09 µM in [7], 2.92 µM in [8], more than 33 µM in [9] and 4.18 µM in test [10].
Regarding `Clc1cc2ncn(C3CCCCO3)c2cc1Cl` (stereo unspecified), the TGI in [2], in [11], in test [4], in test [5], in test [6] and in [7] was more than 100 µM in each case. Moreover, the TGI in [8], in [9] and in [10] was more than 100 µM in each case.
Turning to `Cc1ncc(CSC(=N)N)n1Cc1ccccc1`, the TGI in test [1], in test [2], in test [11], in [3], in [4] and in test [5] was more than 100 µM each time. Also, the TGI in test [6], in test [7], in test [8] and in [9] was more than 100 µM throughout.
`Cn1c(=O)c2c(nc(N/N=C3/SCC(=O)N3Cc3ccccc3)n2C)n(C)c1=O`: the TGI in test [1], in test [2], in test [11], in [3], in test [4] and in test [5] was more than 100 µM in each case. The TGI in [6] is more than 100 µM; in [7], more than 100 µM; in [8], 90.4 µM; in test [9], more than 100 µM.
